Measured values taken from patent EP3570868B1, “[…] ANTIMICROBIAL PEPTIDES AND THEIR APPLICATIONS FOR THE TREATMENT AND PREVENTION OF MUSCU[…]” (Ustav Organicke Chemie a Biochemie AV CR, v.v.i., priority 2017, dated 2018).
Peptide text beside a SMILES is read from it.

Experiments:
[1] = test system: S.e. (clin. isolate Motol); type: cell-based, Staphylococcus epidermidis; conditions: 37° C for 20 h
Procedure: (§1) Gram-positive bacteria (Bacillus subtilis, Staphylococcus aureus, Staphylococcus epidermidis and Enterococcus faecalis), Gram-negative bacteria (Escherichia coli and Pseudomonas aeruginosa) and the yeast (Candida albicans) were grown to exponential phase and then were diluted with fresh medium. BHI medium (Oxoid, Great Britain) was used for Enterococcus faecalis; YPD medium containing yeast extract, peptone and glucose was used for Candida albicans and LB medium (Sigma, Czech Republic) was used for the remaining microorganisms. Then the microorganisms were added to the solutions of the tested antimicrobial peptides in LB medium in multi-well plates, so that the final peptide concentration it the wells was in the range of 0.5 to 100 µmοl.1^-1. The plates were incubated at 37° C for 20 h while being continuously shaken in a Bioscreen C (Oy Growth Curves AB Ltd., Helsinki, Finland). Absorbance was measured at 540 nm every 15 min. Antimicrobial activity (Table 2) was determined as a quantitative minimum inhibitory concentration (MIC) by observing bacterial growth in the presence of different concentrations of tested peptides. In the experiments, ca 10^5 CFU of bacteria or candida per well were used. Tetracycline in a concentration range of 0.5 - 100 µmol.1^-1 was used as a standard.
(§2) Clinical isolates of bacteria were obtained from University Hospital in Motol, Prague, Czech Republic and from Liberec Regional Hospital, Czech Republic. Methicillin resistant Staphylococcus aureus (MRSA) 6271 and Pseudomonas aeruginosa 5482 were from the Czech National Collection of Type Cultures, the National Institute of Public Health, Prague, Czech Republic. Other bacteria were from the Czech Collection of Microorganisms, Brno, Czech Republic. Candida albicans came from the Faculty of Medicine, Palacky University, Olomouc, Czech Republic. Candida tropicalis ATCC 750 and Candida glabrata DSY 565 were obtained from the Institute of Physiology, Academy of Sciences of the Czech Republic.

[2] = test system: MRSA (clin. isolate Motol); test: Biofilm formation on the surface of a bone cement implant in femur heads; type: cell-based, Staphylococcus aureus; conditions: two days
Procedure: (§6) The resulting elastic paste is placed into a 2 ml plastic syringe (without needle) and pressed into the infected holes in the spongy part of the bone, where it polymerizes and hardens. For comparison, other similarly infected holes are filled with cement containing only an antibiotic or antimycotic agent. For comparison, a Vancogenx® cement (Tecresa S. p. A., Italy) is used, made from a mixture of a powdered polymer component containing vancomycin and gentamicin. The mixture in an amount of 125 mg is mixed with liquid monomer (50-60 µl) and then pressed into the openings as described above. In another embodiment, the cements are applied to uninfected holes, allowed to harden, and then microbes are pipetted into the hole excavated between implants. From there they penetrate through bone tissue and settle on the implants with consequent formation of biofilms.
(§7) After two days, implants are removed with metal spikes and tweezers, mechanically cleaned from debris of bone tissue, and washed four times with physiological saline (0.5 ml) in plastic tubes to remove any residual planktonic microbes or bone cells from their surface. The implants in closed tubes with 0.4 ml saline are then sonicated four times for 3 min with occasional shaking. The of microbial biofilm on the surface of the implant is thus disrupted and microbes are loosed into the physiological saline. […]

Candida albicans = type: cell-based; conditions: C.a.; 37° C for 20 h
Procedure: as §1, §2

Bacillus subtilis = type: cell-based; conditions: B.s.; 37° C for 20 h
Procedure: as §1, §2

Escherichia coli = type: cell-based; conditions: E.c.; 37° C for 20 h
Procedure: as §1, §2

[3] = test system: E.f. (clin. isolate Motol); type: cell-based, Enterococcus faecalis; conditions: 37° C for 20 h
Procedure: as §1, §2

human red blood cells = test: Determination of haemolytic activity; type: cell-based; conditions: human red blood cells (5% v/v), 1 h at 37 °C; concentration for lysis of 50% of erythrocytes
Procedure: The peptides in the concentrations 2-400 µmol.1^-1 were incubated with the suspension of human red blood cells (5% v/v) for 1 h at 37 °C in a physiological solution at a final volume of 0.2 ml. The samples were then centrifuged for 5 min at 250 g. The absorbance of the supernatant was determined at 540 nm. 0.2% (v/v) TRITON X100 was used as a control for 100% haemolysis. Haemolytic activity is expressed as the peptide concentration required for lysis of 50% of human erythrocytes in the assay (LC50). Table 2. Antimicrobial and haemolytic activity of I up to XIII peptides and tetracycline.

[4] = test system: S. epidermidis (clin. isolate Motol); test: Biofilm formation on the surface of a bone cement implant in femur heads; type: cell-based; conditions: two days, cement without peptide 4.0x10^6
Procedure: (§8) The resulting elastic paste is placed into a 2 ml plastic syringe (without needle) and pressed into the infected holes in the spongy part of the bone, where it polymerizes and hardens. For comparison, other similarly infected holes are filled with cement containing only an antibiotic or antimycotic agent. […] The mixture in an amount of 125 mg is mixed with liquid monomer (50-60 µl) and then pressed into the openings as described above. In another embodiment, the cements are applied to uninfected holes, allowed to harden, and then microbes are pipetted into the hole excavated between implants. From there they penetrate through bone tissue and settle on the implants with consequent formation of biofilms.
(§9) After two days, implants are removed with metal spikes and tweezers, mechanically cleaned from debris of bone tissue, and washed four times with physiological saline (0.5 ml) in plastic tubes to remove any residual planktonic microbes or bone cells from their surface. The implants in closed tubes with 0.4 ml saline are then sonicated four times for 3 min with occasional shaking. The of microbial biofilm on the surface of the implant is thus disrupted and microbes are loosed into the physiological saline. The resulting suspension is subsequently diluted using the tenfold serial dilution for culturing on agar. […]

[5] = test system: MRSA (clin. isolate Motol); type: cell-based, Staphylococcus aureus; conditions: 37° C for 20 h
Procedure: as §1, §2

MRSA 6271 [6] = type: cell-based, Staphylococcus aureus; conditions: 37° C for 20 h
Procedure: as §1, §2

[7] = test system: MRSA (clin. isolate Liberec); type: cell-based, Staphylococcus aureus; conditions: 37° C for 20 h
Procedure: as §1, §2

P. aeruginosa 5482 = test: Biofilm formation on the surface of a bone cement implant in femur heads; type: cell-based; conditions: two days
Procedure: as §8, §9

[8] = test system: MRSA (clin. isolate Liberec); test: as above; type: cell-based, Staphylococcus aureus; conditions: two days, cement without peptide 8,8x10^3
Procedure: as §6, §7

[9] = test system: S. aureus (clin. isolate Liberec); test: Induced osteomyelitis model in femur heads: effect of peptides released from carrier on infection in the bone graft; type: cell-based; conditions: ChronOS (200 mg); 10 mg, separate holes; two days; carrier without peptide 3,9x10^6
Procedure: (§3) 3-4 holes of a diameter of 5 mm and a depth of 10 mm are drilled with a surgical spoon into a femur head under sterile conditions (spongy part of the bone in the resection site). Thereafter, this bone graft is put into a beaker of appropriate size and lined with sterile gauze squares. The gauze is moistened with sterile physiological saline to prevent drying of the bone. Then, suspension of multiplied microbes in an appropriate medium (50-100 µl) at a concentration of 10^7 to 10^9 CFU is sequentially applied to the prepared holes in the bone graft and allowed to incubate for 1-2 days. […] Beaker with the infected bone graft is covered with a sterile Petri dish. During the experiment, induced osteomyelitis models are kept protected from light at room temperature.
(§4) After the incubation, the infected holes in the bone are filled with a mixture of the local carrier, and a peptide selected from the series of peptides of formulae I to XIII or their specific enantiomers (Figure 1). For comparison, one of the holes is filled with the local carrier without peptide, or the carrier filled with antibiotic (vancomycin or gentamicin). A commercially available two-component material supplied by Synthes (Synthes GmbH, Switzerland) under the name ChronOS Inject was used as the carrier. Its solid component comprises a mixture of calcium phosphates CaHPO4.2H2O and Ca3(PO4)2 and additives, the liquid component is 0.5% (vol./vol.) solution of hyaluronic acid.
(§5) After two days, the filling is thoroughly removed with a surgical spoon and empty holes are wiped with moistened sterile cotton swab, which is then extracted into 400 µl physiological saline. The extract is diluted in a tenfold serial dilution and each diluted suspension is cultured on agar in Petri dishes; the culture is evaluated on the following day. […] The result of the peptide effect is also compared with the result of the effect of antibiotics. In some cases, microbiological examination of the bone tissue taken with a surgical spoon from a deeper area of the drilled holes is performed. […] Table 3. Evaluation of the effect of antimicrobial peptides released from the carrier on an infection in the bone graft. Effect of antimicrobial activity is expressed in the number of CFU (colony-forming units) in the infected hole after swabbing.

[10] = test system: P.a. (clin. isolate Liberec); type: cell-based, Pseudomonas aeruginosa; conditions: 37° C for 20 h
Procedure: as §1, §2

P.a. 5482 = type: cell-based, Pseudomonas aeruginosa; conditions: 37° C for 20 h
Procedure: as §1, §2

[11] = test system: MRSA (clin. isolate Liberec); test: Induced osteomyelitis model in femur heads: effect of peptides released from carrier on infection in the bone graft; type: cell-based, Staphylococcus aureus; conditions: ChronOS (200 mg); 10 mg, separate holes; two days; carrier without peptide 3,4x10^7
Procedure: as §3, §4, §5

MRSA 6271 [12] = test: Biofilm formation on the surface of a bone cement implant in femur heads; type: cell-based, Staphylococcus aureus; conditions: two days
Procedure: as §6
(§10) After two days, implants are removed with metal spikes and tweezers, mechanically cleaned from debris of bone tissue, and washed four times with physiological saline (0.5 ml) in plastic tubes to remove any residual planktonic microbes or bone cells from their surface. The implants in closed tubes with 0.4 ml saline are then sonicated four times for 3 min with occasional shaking. The of microbial biofilm on the surface of the implant is thus disrupted and microbes are loosed into the physiological saline. The resulting suspension is subsequently diluted using the tenfold serial dilution for culturing on agar.
(§11) Evaluation of the effect of antimicrobial peptides on the formation of microbial biofilm on the surface of the implant made of the bone cement.

[13] = test system: Candida albicans (clin. isolate Olomouc); test: as above; type: cell-based; conditions: two days, cement without peptide 6.0x10^3
Procedure: as §6, §10, §11

[14] = test system: Enterococcus faecalis (clin. isolate Motol); test: as above; type: cell-based; conditions: two days
Procedure: as §6, §7

[15] = test system: P. aeruginosa (clin. isolate Liberec); test: as above; type: cell-based; conditions: two days, cement without peptide N/A
Procedure: as §8, §9

[16] = test system: Candida tropicalis ATCC 750; test: as above; type: cell-based; conditions: two days, cement without peptide 3.7x10^5
Procedure: as §8, §9

[17] = test system: S. epidermidis (clin. isolate Motol); test: Induced osteomyelitis model in femur heads: effect of peptides released from carrier on infection in the bone graft; type: cell-based; conditions: ChronOS (300 mg); 10 mg, separate holes; two days; carrier without peptide 1,2x10^5
Procedure: as §3, §4, §5

MRSA 6271 [18] = test: as above; type: cell-based, Staphylococcus aureus; conditions: ChronOS (200 mg), two days, carrier without peptide 7,0x10^7
Procedure: as §3, §4, §5

[19] = cement without peptide 2.8x10^6

Structure (SMILES)	Antimicrobial activity MIC [1]	Antimicrobial activity MIC (Candida albicans)	Antimicrobial activity MIC (Bacillus subtilis)	Antimicrobial activity MIC (Escherichia coli)	Antimicrobial activity MIC [3]	Hemolytic activity LC50 (human red blood cells) [µM]	Antimicrobial activity MIC [5]	Antimicrobial activity MIC (MRSA 6271 [6])	Antimicrobial activity MIC [7]	Antimicrobial activity MIC [10]	Antimicrobial activity MIC (P.a. 5482)	CFU/hole [11]	CFU/implant [13]	further results
CC[C@H](C)[C@H](NC(=O)[C@H](CCCCN)NC(=O)[C@H](CCCCN)NC(=O)[C@H](CC(C)C)NC(=O)[C@H](CC(C)C)NC(=O)[C@H](CCCCN)NC(=O)[C@H](CCSC)NC(=O)[C@H](Cc1c[nH]c2ccccc12)NC(=O)[C@@H](N)CCCCN)C(=O)N[C@@H](CC(C)C)C(=O)N[C@@H](CCCCN)C(N)=O [I] (H-KWMKLLKKILK-NH2)	3,2 µmol.l^-1	9,5 µmol.l^-1	2,3 µmol.l^-1	12,7 µmol.l^-1	>100 µmol/L	>400	17,7 µmol.l^-1	13,5 µmol.l^-1	8,0 µmol.l^-1	5,8 µmol.l^-1	2,9 µmol.l^-1	2,3x10^5 / 2,3x10^5 CFU/hole	6.8x10^1 CFU/implant	CFU/implant ([2]; cement without peptide 2,6x10^6): 0 CFU/implant; CFU/implant [4]: 1,1x10^3 CFU/implant; CFU/implant (P. aeruginosa 5482; cement without peptide 6x10^5): 7.0x10^2 CFU/implant; CFU/implant [8]: 0 CFU/implant; CFU/hole [9]: 1,3x10^4 CFU/hole; CFU/implant (MRSA 6271 [12]; cement without peptide 1.1x10^6): 0 CFU/implant
CC[C@H](C)[C@H](NC(=O)[C@H](CCCCN)NC(=O)[C@H](CCCCN)NC(=O)[C@H](CC(C)C)NC(=O)[C@H](CC(C)C)NC(=O)[C@H](CCCCN)NC(=O)[C@H](CCSC)NC(=O)[C@H](Cc1c[nH]c2ccccc12)NC(=O)[C@H](CCCCN)NC(=O)CN)C(=O)N[C@@H](CC(C)C)C(=O)N[C@@H](CCCCN)C(N)=O [III]	2,3 µmol.l^-1	5,7 µmol.l^-1	1,8 µmol.l^-1	9,0 µmol.l^-1	13,3 µmol.l^-1	339	5,7 µmol.l^-1	6,3 µmol.l^-1	3,6 µmol.l^-1	10,0 µmol.l^-1	2,8 µmol.l^-1	2,3x10^5 / 2,3x10^5 CFU/hole	2 CFU/implant	CFU/implant ([2]; cement without peptide 3,4x10^5): 0 CFU/implant; CFU/implant [14, 19]: 0 CFU/implant; CFU/implant ([14]; cement without peptide 2.9x10^5): 0 CFU/implant; CFU/implant (P. aeruginosa 5482; [19]): 2.6x10^1 CFU/implant; CFU/implant [15]: 1.1x10^3 CFU/implant; CFU/implant [16]: 0 CFU/implant; CFU/hole [17]: 0 in all cases CFU/hole; CFU/hole (MRSA 6271 [18]; III (5 mg)): 1,9x10^2 CFU/hole; CFU/hole (MRSA 6271 [18]; III (10 mg)): 7,6x10^2 CFU/hole; CFU/implant (MRSA 6271 [12]; cement without peptide N/A, first experiment with III): 5.1 x 10^3 CFU/implant; CFU/implant (MRSA 6271 [12]; cement without peptide N/A, second experiment with III): 0 CFU/implant
